Patent US11136328B2, “3,3-difluoropiperidine carbamate heterocyclic compounds as NR2B NMDA receptor antagonists” (Rugen Holdings (Cayman) Limited, priority 2015, dated 2021)

What was measured:
CYP2D6 = CYP2D6 (Homo sapiens (Human), UniProt P10635); experiment: CYP P450 enzyme inhibition in pooled human liver microsomes; assay type: in vitro ADME; details: 10 μM compound, pooled HLM
Method: Those CYP isoforms and their corresponding probe substrates are as follows: CYP1A2 (phenacetin, 30 μM), CYP2C9 (tolutamide, 100 μM), CYP2C19 (S-mephenytoin, 40 μM), CYP2D6 (dextromethorphan, 5 μM) and CYP3A4 (midazolam, 1 μM). All probe substrates were used at concentrations near or below their Kms. For experiment, a reaction mixture of test compound at 10 μM or in serial dilution, CYP probe substrate described above and 0.2 mg/mL pooled HLM in phosphate buffer, pH 7.4 in a final volume of 200 μL was pre-incubated at 37° C. for 10 minutes in triplicate. The reaction was initiated by addition of NADPH at final concentration of 1 mM. The reaction was terminated after 10 minutes (CYP1A2, CYP2D6 and CYP3A4) or 30 minutes (CYP2C9 and CYP2C19) by addition of 100 μL ice-cold acetonitrile with internal standard (IS). The samples were then centrifuged at 13,000 rpm and the supernatants were injected to LC-MS/MS (Agilent Technologies) to quantify the concentration of the specific metabolites of the probe substrates formed by individual CYP450 isoforms. The inhibition ratio is calculated as: (Mt−M0)/Mwater×100% in which Mt and M0 represent the concentrations of the specific probe substrate metabolite, which was formed by individual CYP450 isoform, at the beginning and end of the reaction in the presence of test compound; while Mwater represents the concentration of the specific metabolite at the end of the reaction in the absence of test compound. Test compound concentration-dependent response data experiments performed in triplicate.

hERG channel = hERG channel (Homo sapiens (Human), UniProt Q12809); experiment: hERG channel inhibition, whole cell patch clamp; assay type: cell-based; details: 10 μM compound
Chain of hERG channel (Q12809 whole entry): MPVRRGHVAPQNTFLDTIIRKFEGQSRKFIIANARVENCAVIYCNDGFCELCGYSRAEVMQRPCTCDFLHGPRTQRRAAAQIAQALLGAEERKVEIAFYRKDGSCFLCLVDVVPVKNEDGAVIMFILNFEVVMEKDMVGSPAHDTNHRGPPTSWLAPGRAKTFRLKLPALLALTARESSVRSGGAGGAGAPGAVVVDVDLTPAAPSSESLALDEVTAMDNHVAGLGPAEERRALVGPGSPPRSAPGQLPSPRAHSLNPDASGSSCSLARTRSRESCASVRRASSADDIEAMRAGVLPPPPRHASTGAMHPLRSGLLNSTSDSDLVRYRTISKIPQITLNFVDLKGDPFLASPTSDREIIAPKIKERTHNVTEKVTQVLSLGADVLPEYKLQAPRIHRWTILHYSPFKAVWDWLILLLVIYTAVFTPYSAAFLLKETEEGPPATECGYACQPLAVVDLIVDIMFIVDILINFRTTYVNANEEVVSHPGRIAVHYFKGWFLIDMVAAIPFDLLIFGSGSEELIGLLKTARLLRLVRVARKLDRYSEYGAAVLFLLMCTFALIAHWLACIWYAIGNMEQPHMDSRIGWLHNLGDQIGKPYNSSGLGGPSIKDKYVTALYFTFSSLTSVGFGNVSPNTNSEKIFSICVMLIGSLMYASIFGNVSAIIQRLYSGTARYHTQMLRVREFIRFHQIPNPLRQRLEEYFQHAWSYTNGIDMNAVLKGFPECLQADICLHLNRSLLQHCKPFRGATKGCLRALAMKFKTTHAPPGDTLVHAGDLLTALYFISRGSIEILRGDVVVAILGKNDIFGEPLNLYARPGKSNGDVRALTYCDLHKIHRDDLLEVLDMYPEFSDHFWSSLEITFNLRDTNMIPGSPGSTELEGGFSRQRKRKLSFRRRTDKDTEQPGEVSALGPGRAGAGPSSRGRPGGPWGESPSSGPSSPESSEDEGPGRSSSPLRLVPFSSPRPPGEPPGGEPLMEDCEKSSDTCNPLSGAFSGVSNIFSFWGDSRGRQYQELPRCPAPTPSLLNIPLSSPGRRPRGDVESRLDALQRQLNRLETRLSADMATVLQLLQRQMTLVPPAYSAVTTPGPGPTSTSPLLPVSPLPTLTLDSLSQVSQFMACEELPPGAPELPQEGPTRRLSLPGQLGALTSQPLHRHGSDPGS
Method: The assay was performed on hERG channel stably expressed in HEK293 cells. The cells were cultured at 37° C. in a humidified CO2 incubator in the growth medium consisting of DMEM, 10% fetal bovine serum and antibiotics. Prior to the assay, the cells were seeded onto a 12 mm PDL-coated glass coverslip and cultured in a 35 mm Petri dish. After 16 to 40 hr culture, the cover slip was transferred into the chamber of OctaFlow perfusion system (ALA Instrument) and under a constant flow of extracellular solution (140 mM NaCl, 4 mM KCl, 1 mM MgCl2, 2 mM CaCl2, 10 mM HEPES, 10 mM D-glucose, pH 7.35, osmolarity 290). Whole cell patch clamping was performed with a glass micropipette filled with intracellular solution (120 mM KCl, 1.75 mM MgCl2, 5.4 mM CaCl2, 10 mM HEPES, 10 mM EGTA, and 4 mM ATP-K2, PH 7.2, osmolarity 310). Giga-seal was maintained during the test. The voltage control and current measurement were carried out using Axon amplifier 700B, Digidata 1440A and CLAMPEX10 software (Molecular Devices). Whole-cell hERG currents were recorded following the Petroski protocol: the cell was held at −80 mV, and the voltage step jumped from −80 to 30 mV and stay for 2 sec with a 20 ms prepulse at −40 mV. After depolarization, the voltage was decreased to −40 mV and stay for 2 sec, and returned back to −80 mV. Test compound was applied by quartz capillary tubes tip (200 μm inner diameter), and the flow rate was controlled at 2-3 ml/min with OctaFlow perfusion system. Different concentrations of the compound were applied to the cells for 5 min and the hERG current was measured three times before, during and after compound treatment. The data were analyzed using Clampfit 10 software (Molecular Devices) to generate IC50 values.

rats [1] = experiment: Pentylenetetrazole (PTZ) Seizure Test; assay type: in vivo; details: 10 mg/kg p.o. 30 min before PTZ 100 mg/kg s.c.
Method: Rats, placed in individual macrolon cages (25×19×13 cm), were injected with pentylenetetrazole (PTZ) (100 mg/kg s.c.). The occurrence and latency of clonic and tonic convulsions and death were noted over a 30 minute period. 15 rats were studied per group. The test was performed blind.
(§1) Test compound E1-8.2 was administered as the free base.
Compounds were evaluated typically using 0.5% dimethylsulfoxide, 4% hydroxypropyl-b-cyclodextrin water as a vehicle at 1 or more doses (e.g., 1, 3 and 10 mg/kg), administered p.o. 30 minutes before PTZ, and compared with a vehicle control group. Diazepam (16 mg/kg p.o.), administered 60 minutes before PTZ, was used as reference substance. The experiment was performed over 2 separate sub-experiments with N=7 to 8 animals per group and per sub-experiment. Quantitative data (latencies) with the test substance was analyzed by comparing treated groups with vehicle control using Kruskal-Wallis test followed by Mann-Whitney U test. Quantitative data with the reference substance was analyzed using Mann-Whitney U test. Quantal data (frequencies) was analyzed by comparing treated groups with vehicle control using Fisher's Exact Probability tests (*=p<0.05; **=p<0.01; ***=p<0.001).

rats [2] = experiment: Rat formalin model; assay type: in vivo; details: each of 10, 30 and 60 mpk i.p., mesylate salt
Method: The rat formalin model is a tonic model of continuous pain resulting from formalin-induced spontaneous nociceptive behaviors. Intra-paw injection of formalin is a commonly used model to measure spontaneous nociceptive behaviors in rodents (Dubuisson, D. and Dennis, S. G. Pain 4:161, 1977). Subcutaneous plantar injection of formalin causes a bi-phasic nocifensive behavioral response in rodents. The early phase (phase-1) lasts for about 5-10 min following which an interphase occurs without any discernible nociceptive reactions after which the late phase (phase-II) nociceptive reaction ensues continuing from about 20-60 min following formalin injection. Formalin model is a model of tonic, persistent pain, and is widely used for rapid screening of novel analgesic compounds. […] In the present example, effects of test item were assessed in 0-5 minutes from the early phase (phase-I) and 20-35 minutes from the late phase (phase-II) of formalin-induced nociceptive behavior. […]
For all groups, animals were acclimated to the observation chamber for 15 minutes immediately prior to formalin injection. All animals received an intraplantar subcutaneous injection of 50 μL of 5% formalin into the left hind paw and then placed immediately into an observation chamber and formalin-evoked spontaneous nociceptive behaviors in the rats were continuously recorded for 0-60 min using a commercial camcorder. […]

rats [3] = experiment: Cortical spreading depression (CSD) migraine model; assay type: in vivo
Method: The cortical spreading depression model is utilized to investigate whether treatment with compounds of the present invention affect electrophysiological and hemodynamic events in a rat model of migraine.
Rats were anesthetized with 5% isoflurane (in 70% N2O and 30% O2; flow 300 ml/min) and placed in a stereotactic frame. […] The rectal temperature was maintained at 37.0±1.0° C. with a homeothermic blanket system. The skin was opened by a medial incision and retracted laterally. Three burr holes were drilled under saline cooling over the right hemisphere at the following coordinates (mm from bregma): (1) posterior 4.5, lateral, 2.0 (occipital cortex): KCl application site; (2) posterior 0.5, lateral 2.0 (parietal cortex): LDF recording site; (3) anterior 2, lateral 2 (frontal cortex): DC potential recording site. A laser-Doppler flow probe (Oxyflow, Oxford Optronics, UK) to monitor CBF and an invasive Ag/AgCl electrode for measuring direct current (DC) potential shifts were placed in the parietal and frontal cortex burr holes on the intact dura and in the cortex, respectively. The laser-Doppler flow probe was positioned in an area free of large pial and dural vessels to minimize a large-vessel contribution to the signal. For the DC-potential measurement, a reference electrode was fixed in the neck. Dura overlying the occipital cortex was gently removed and care was taken to avoid bleeding. After surgical preparation, the cortex was allowed to recover for 15 minutes under saline irrigation. A cotton ball (2 mm diameter) soaked with 1M KCl was placed on the pial surface and kept moist by placing 5 μl of KCl solution every 15 minutes. Test compound or vehicle was administered ten (10) minutes prior to CSD initiation. […] The number of KCl-induced CSDs was counted for 2 hours. The CBF and DC-potentials were monitored continuously starting from 5 minutes before KCl exposure.
Test compound E1-1.2 was administered as a mesylate salt (mpk based on molecular weight of the mesylate salt).
The data was collected in Windaq acquisition software (Dataq Instruments, USA) at 20 kHz. The raw data was analyzed in Clampfit program (Axon Instruments, USA). The signals were low pass filtered (cut off range 5-10000 Hz) that CSD episodes in DC and CBF could be confirmed. The following parameters were analyzed: i) the number, duration and amplitude of DC-potentials, and ii) the number and amplitude of CBF events.

rats [4] = experiment: Electroconvulsive Threshold Test (ECT); assay type: in vivo; details: 3, 10 and 30 mpk p.o., mesylate salt
Method: as §1
Rats were administered ECS (rectangular current: 0.6 ms pulse width, 1.5 s duration, 200 Hz) via earclip electrodes connected to a constant current shock generator (Ugo Basile: type 7801). Test compounds were administered by oral gavage (p.o.) 1 hour before the test at a dose volume of 5 mL/kg.
Treatment groups of 20 rats were exposed to ECS as follows: The first animal was exposed to 30 mA of ECS. […] (increases of 5 mA) until the first tonic convulsion was observed. Once the first tonic convulsion was observed, the intensity of ECS was decreased by 2 mA for the next animal and then decreased or increased by 2 mA from animal to animal depending on whether the previous animal convulsed or not. If the first animal did convulse (tonic convulsions) within 5 seconds, animal no 2 is exposed to 25 mA, etc. . . . (decreases of 5 mA) until the absence of tonic convulsions was observed. At this point, the intensity of ECS was increased by 2 mA for the next animal and then decreased or increased by 2 mA from animal to animal depending on whether the previous animal convulsed or not. The minimum current intensity applied is 5 mA and the maximum 95 mA. The first 5 animals serve to approach threshold current and were not included in the analysis. The results are presented as the mean current intensity administered to the final 15 animals of a group. The test was performed blind. A positive percent change indicates an anticonvulsant effect. A negative percent change indicates a proconvulsant effect. The test substance was evaluated at 4 doses, typically using 0.5% dimethylsulfoxide, 4% hydroxypropyl-b-cyclodextrin water as a vehicle, and administered p.o. 60 minutes before ECS, and compared with a vehicle control group. Diazepam (16 mg/kg p.o.), administered under the same experimental conditions, was used as reference substance. The experiment included 6 groups. Data with the test substance was analyzed by comparing treated groups with vehicle control using one-way ANOVA followed by Dunnett's t tests.

rats [5] = experiment: Haloperidol-induced Catalepsy (HIC) model; assay type: in vivo; details: 8 mg/kg p.o. 60 minutes before the test
Source text: The Haloperidol-induced Catalepsy (HIC) model detects antipsychotic activity and the action of NR2B selective antagonists (Steece-Collier et al. Exp. Neurol. 163: 239, 2000) and was based on methods described by Chermat and Simon (J. Pharmacol., 6, 493-496, 1975). The capacity to induce catalepsy serves as an index of the liability of a test substance to induce extrapyramidal side-effects, in particular Parkinsonism. Antagonism of antipsychotic-induced catalepsy can thus serve to detect anti-Parkinson potential.
Rats were injected with haloperidol (1 mg/kg i.p.) and were examined for catalepsy at 30 minute intervals up to 360 minutes. Presence (+) or absence (−) of catalepsy was assessed by three procedures: 1) imposed crossing of the ipsilateral fore- and hind-limbs; 2) placing the animal in the Buddha position; 3) the tilting board, an automatic device that, 5 seconds after positioning the rat, displaces the rat from a horizontal to vertical position and back while it clings to a wire grid with its front paws. Akinesia and catalepsy were assessed depending on whether or not the animal moves before (akinesia) or during operation of the board (catalepsy). […]
Amphetamine (8 mg/kg p.o.), administered 60 minutes before the test (i.e. 90 minutes before the first measurement), was used as reference substance. […] Data with the reference substance were analyzed using Mann-Whitney U tests.

[6] = E1-1.2 at various doses, MK-801 1.25 mg/kg

Chain of CYP2D6 (P10635 whole entry): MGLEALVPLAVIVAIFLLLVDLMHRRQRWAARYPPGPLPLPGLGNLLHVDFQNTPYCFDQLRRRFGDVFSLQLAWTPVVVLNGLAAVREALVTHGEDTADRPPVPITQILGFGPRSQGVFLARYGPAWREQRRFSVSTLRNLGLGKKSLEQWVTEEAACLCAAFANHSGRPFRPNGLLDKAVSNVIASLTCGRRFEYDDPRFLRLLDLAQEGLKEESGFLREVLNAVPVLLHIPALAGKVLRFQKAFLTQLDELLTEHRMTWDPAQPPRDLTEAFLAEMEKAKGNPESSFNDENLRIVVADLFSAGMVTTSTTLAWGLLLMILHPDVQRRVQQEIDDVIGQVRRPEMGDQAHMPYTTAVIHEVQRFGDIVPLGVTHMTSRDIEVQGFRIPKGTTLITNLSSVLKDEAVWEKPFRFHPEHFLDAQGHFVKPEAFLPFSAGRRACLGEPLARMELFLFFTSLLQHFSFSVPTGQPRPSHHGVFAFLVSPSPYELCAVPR

Row | Compound | CYP2D6 @ 10 μM (%) (CYP2D6) | hERG @ 10 μM (%) (hERG channel) | change in latency to death (rats [1]) | change in number of deaths vs vehicle controls (rats [1]) [%] | cumulative time spent on nociceptive behavior in phase I (0-5 mins) (rats [2]) | cumulative time spent on nociceptive behavior in phase II (20-35 mins) (rats [2]) | magnitude of CBF vs vehicle (rats [3]) | number of DC potentials vs vehicle group (rats [3]; 3 mpk, 10 mpk and 30 mpk, mesylate salt) | number of CBF events vs vehicle (rats [3]; E1-1.2 at 10 mg/kg, MK-801 at 1.25 mg/kg) | amplitude of DC potentials vs vehicle (rats [3]; [6]) | duration of DC potentials vs vehicle (rats [3]; [6]) | activity on electroconvulsive threshold (rats [4]) | anticataleptic activity (rats [5])
1 | Cc1ccc(COC(=O)N2CC[C@H](CNc3nccn4cnnc34)C(F)(F)C2)cc1 [Compound E1-1.2, (+)-R-4-methylbenzyl 4-(([1,2,4]triazolo[4,3-a]pyrazin-8-ylamino)methyl)-3,3-difluoropiperidine-1-carboxylate] | 14 | 17 | +35% | −91 | decreased | decreased | unchanged | significantly decreased | decreased | not statistically different compared to vehicle | not statistically different compared to vehicle | robust anticonvulsant activity | –
2 | CC(N)Cc1ccccc1 (stereo not shown) [amphetamine] | – | – | – | – | – | – | – | – | – | – | – | – | showed the expected robust anticataleptic activity
